Measured values taken from patent publication US20210369853A1, “TARGETED PROTEASE DEGRADATION PLATFORM” (EUBULUS BIOTHERAPEUTICS INC., priority 2018, published 2021).

Test system: Human Monocytic Leukemia MV4-11
Experiment: Cell proliferation experiment (Alarm blue, 72 h, EC50)
Type: cell-based
Settings: Homo sapiens, MV4-11, MV4;11 cells
Description: (2.1) Cell Proliferation Experiment:
Reagents: RPMI-1640 medium, McCoy's 5A medium, IMDM medium, MEM medium, L-15 medium, fetal bovine serum, Penicillin-Streptomycin double antibody, trypsin, etc., 2-mercaptoethanol, NEAA, pyruvate, etc.
The cells were cultured in conventional ways, and the cells should be passed at least for at least 2 generations before plating. Cells at the logarithmic growth phase are collected, prepared into single cell suspensions and counted. The concentration of cells was adjusted to the desired concentration, and cells were inoculated into a 96-well cell culture plate at 100 μl per well. 100 μL of complete medium of the test compound were added to each well, set up 2 duplicates for each concentration, and diluted with a 5-fold gradient, and continue to culture for 72 h. All cells were subjected to EC50 test for corresponding samples.
The fluorescence intensity of each well was detected using the Alarm blue method, and EC50 was calculated.
EC50 was calculated according to the following formula:
Y=Max+(Min−Max)/[1+(X/EC50)×Slope]
wherein Min, Max and Slope represent the minimum, maximum and slope respectively.

EC50 [µM] | SMILES
0.1 to 1 | O=C1CCC(N2Cc3c(NC(=O)CCCCCNCCOCCOCCOCCNC(=O)[C@]4(Cc5cccc(Nc6nccs6)n5)CC[C@@H](Oc5cccc(Cl)c5F)CC4)cccc3C2=O)C(=O)N1 (some centres unmarked) [UB-180771]
> 1 | O=C1CCC(N2Cc3c(NC(=O)CCCCNCCOCCOCCOCCNC(=O)c4ccc(Nc5ncc6c(n5)-c5ccc(Cl)cc5C(c5c(F)cccc5F)=NC6)cc4)cccc3C2=O)C(=O)N1 (centres unmarked) [UB-180772]
0.1 to 1 | O=C1CCC(N2Cc3c(NC(=O)CCCNCCOCCOCCOCCNC(=O)c4ccc(Nc5ncc6c(n5)-c5ccc(Cl)cc5C(c5c(F)cccc5F)=NC6)cc4)cccc3C2=O)C(=O)N1 (centres unmarked) [UB-180773]
0.1 to 1 | O=C1CCC(N2Cc3c(NC(=O)CCNCCn4ncc(CNC(=O)[C@]5(Cc6cccc(Nc7nccs7)n6)CC[C@@H](Oc6cccc(Cl)c6F)CC5)n4)cccc3C2=O)C(=O)N1 (some centres unmarked) [UB-180774]
0.1 to 1 | O=C1CCC(N2Cc3c(NC(=O)CCNCCOCCN4CCC(NC(=O)c5ccc(Nc6ncc7c(n6)-c6ccc(Cl)cc6C(c6c(F)cccc6F)=NC7)cc5)CC4)cccc3C2=O)C(=O)N1 (centres unmarked) [UB-180775]
0.1 to 1 | O=C1CCC(N2Cc3c(NC(=O)CCNCCOCCN4CCC(NC(=O)[C@]5(Cc6cccc(Nc7nccs7)n6)CC[C@@H](Oc6cccc(Cl)c6F)CC5)CC4)cccc3C2=O)C(=O)N1 (some centres unmarked) [UB-180776]
0.1 to 1 | O=C1CCC(N2Cc3c(NC(=O)CCNCCOCCOCCNC(=O)c4ccc(Nc5ncc6c(n5)-c5ccc(Cl)cc5C(c5c(F)cccc5F)=NC6)cc4)cccc3C2=O)C(=O)N1 (centres unmarked) [UB-180777]
> 1 | O=C1CCC(N2Cc3c(NC(=O)CCCCNCCOCCOCCOCCNC(=O)[C@]4(Cc5cccc(Nc6nccs6)n5)CC[C@@H](Oc5cccc(Cl)c5F)CC4)cccc3C2=O)C(=O)N1 (some centres unmarked) [UB-180778]
> 1 | O=C1CCC(N2Cc3c(NC(=O)CCCNCCOCCOCCOCCNC(=O)[C@]4(Cc5cccc(Nc6nccs6)n5)CC[C@@H](Oc5cccc(Cl)c5F)CC4)cccc3C2=O)C(=O)N1 (some centres unmarked) [UB-180779]
> 1 | Cc1ncsc1-c1ccc(CNC(=O)[C@@H]2C[C@@H](O)CN2C(=O)[C@@H](NC(=O)CCNCCOCCOCCOCCNC(=O)c2ccc(Nc3ncc4c(n3)-c3ccc(Cl)cc3C(c3c(F)cccc3F)=NC4)cc2)C(C)(C)C)cc1 [UB-180780]
0.1 to 1 | Cc1ncsc1-c1ccc(CNC(=O)[C@@H]2C[C@@H](O)CN2C(=O)[C@@H](NC(=O)CNCCOCCOCCOCCNC(=O)c2ccc(Nc3ncc4c(n3)-c3ccc(Cl)cc3C(c3c(F)cccc3F)=NC4)cc2)C(C)(C)C)cc1 [UB-180781]
> 1 | Cc1ncsc1-c1ccc(CNC(=O)[C@@H]2C[C@@H](O)CN2C(=O)[C@@H](NC(=O)CCNCCOCCOCCOCCNC(=O)[C@]2(Cc3cccc(Nc4nccs4)n3)CC[C@@H](Oc3cccc(Cl)c3F)CC2)C(C)(C)C)cc1 [UB-180782]
> 1 | Cc1ncsc1-c1ccc(CNC(=O)[C@@H]2C[C@@H](O)CN2C(=O)[C@@H](NC(=O)CNCCOCCOCCOCCNC(=O)[C@]2(Cc3cccc(Nc4nccs4)n3)CC[C@@H](Oc3cccc(Cl)c3F)CC2)C(C)(C)C)cc1 [UB-180783]
> 1 | Cc1ncsc1-c1ccc(CNC(=O)[C@@H]2C[C@@H](O)CN2C(=O)[C@@H](NC(=O)CCNCCOCCn2cc(CNC(=O)c3ccc(Nc4ncc5c(n4)-c4ccc(Cl)cc4C(c4c(F)cccc4F)=NC5)cc3)nn2)C(C)(C)C)cc1 [UB-180784]
> 1 | Cc1ncsc1-c1ccc(CNC(=O)[C@@H]2C[C@@H](O)CN2C(=O)[C@@H](NC(=O)CCNCCOCCn2cc(CNC(=O)[C@]3(Cc4cccc(Nc5nccs5)n4)CC[C@@H](Oc4cccc(Cl)c4F)CC3)nn2)C(C)(C)C)cc1 [UB-180785]
> 1 | Cc1ncsc1-c1ccc(CNC(=O)[C@@H]2C[C@@H](O)CN2C(=O)[C@@H](NC(=O)CCNCCn2cc(COCCOCCNC(=O)c3ccc(Nc4ncc5c(n4)-c4ccc(Cl)cc4C(c4c(F)cccc4F)=NC5)cc3)nn2)C(C)(C)C)cc1 [UB-180786]
> 1 | Cc1ncsc1-c1ccc(CNC(=O)[C@@H]2C[C@@H](O)CN2C(=O)[C@H](NC(=O)CCCNCCn2cc(COCCOCCNC(=O)c3ccc(Nc4ncc5c(n4)-c4ccc(Cl)cc4C(c4c(F)cccc4F)=NC5)cc3)nn2)C(C)(C)C)cc1 [UB-180787]
> 1 | Cc1ncsc1-c1ccc(CNC(=O)[C@@H]2C[C@@H](O)CN2C(=O)[C@@H](NC(=O)COCCNCCn2cc(COCCOCCNC(=O)c3ccc(Nc4ncc5c(n4)-c4ccc(Cl)cc4C(c4c(F)cccc4F)=NC5)cc3)nn2)C(C)(C)C)cc1 [UB-180788]
> 1 | Cc1ncsc1-c1ccc(CNC(=O)[C@@H]2C[C@@H](O)CN2C(=O)[C@@H](NC(=O)CCNCCn2cc(COCCOCCOCCNC(=O)[C@]3(Cc4cccc(Nc5nccs5)n4)CC[C@@H](Oc4cccc(Cl)c4F)CC3)nn2)C(C)(C)C)cc1 [UB-180789]
> 1 | Cc1ncsc1-c1ccc(CNC(=O)[C@@H]2C[C@@H](O)CN2C(=O)[C@@H](NC(=O)CCCNCCn2cc(COCCOCCOCCNC(=O)[C@]3(Cc4cccc(Nc5nccs5)n4)CC[C@@H](Oc4cccc(Cl)c4F)CC3)nn2)C(C)(C)C)cc1 [UB-180790]
> 1 | Cc1ncsc1-c1ccc(CNC(=O)[C@@H]2C[C@@H](O)CN2C(=O)[C@@H](NC(=O)COCCNCCn2cc(COCCOCCOCCNC(=O)[C@]3(Cc4cccc(Nc5nccs5)n4)CC[C@@H](Oc4cccc(Cl)c4F)CC3)nn2)C(C)(C)C)cc1 [UB-180791]

Further lines, the compound ahead of its results:

SMILES | EC50 [µM]
O=C1CCC(N2Cc3c(NC(=O)CNCCOCCN4CCC(NC(=O)[C@]5(Cc6cccc(Nc7nccs7)n6)CC[C@@H](Oc6cccc(Cl)c6F)CC5)CC4)cccc3C2=O)C(=O)N1 (some centres unmarked) [UB-180736] | 0.1 to 1
O=C1CCC(N2Cc3c(NC(=O)COCCNCCN4CCC(NC(=O)c5ccc(Nc6ncc7c(n6)-c6ccc(Cl)cc6C(c6c(F)cccc6F)=NC7)cc5)CC4)cccc3C2=O)C(=O)N1 (centres unmarked) [UB-180740] | 0.1 to 1
O=C1CCC(N2Cc3c(NC(=O)COCCNCCN4CCC(NC(=O)[C@]5(Cc6cccc(Nc7nccs7)n6)CC[C@@H](Oc6cccc(Cl)c6F)CC5)CC4)cccc3C2=O)C(=O)N1 (some centres unmarked) [UB-180741] | > 1
O=C1CCC(N2Cc3c(NC(=O)CNCCOCCn4cc(CNC(=O)[C@]5(Cc6cccc(Nc7nccs7)n6)CC[C@@H](Oc6cccc(Cl)c6F)CC5)nn4)cccc3C2=O)C(=O)N1 (some centres unmarked) [UB-180742] | 0.1 to 1
O=C1CCC(N2Cc3c(NC(=O)CNCCOCCn4cc(CNC(=O)c5ccc(Nc6ncc7c(n6)-c6ccc(Cl)cc6C(c6c(F)cccc6F)=NC7)cc5)nn4)cccc3C2=O)C(=O)N1 (centres unmarked) [UB-180743] | 0.1 to 1
O=C1CCC(N2Cc3c(NC(=O)COCCNCCn4cc(CNC(=O)[C@]5(Cc6cccc(Nc7nccs7)n6)CC[C@@H](Oc6cccc(Cl)c6F)CC5)nn4)cccc3C2=O)C(=O)N1 (some centres unmarked) [UB-180744] | 0.1 to 1
CC[C@@H]1C(=O)N(C)c2cnc(Nc3ccc(C(=O)NC4CCN(CCOCCNCC(=O)Nc5cccc6c5CN(C5CCC(=O)NC5=O)C6=O)CC4)cc3OC)nc2N1Cc1ccc(C)s1 (some centres unmarked) [UB-180746] | 0.01 to 0.1
O=C1CCC(N2Cc3c(NC(=O)CCNCCn4ncc(CNC(=O)c5ccc(Nc6ncc7c(n6)-c6ccc(Cl)cc6C(c6c(F)cccc6F)=NC7)cc5)n4)cccc3C2=O)C(=O)N1 (centres unmarked) [UB-180761] | > 1
CC[C@@H]1C(=O)N(C)c2cnc(Nc3ccc(C(=O)NCc4cn(CCNCCOCC(=O)Nc5cccc6c5CN(C5CCC(=O)NC5=O)C6=O)nn4)cc3OC)nc2N1Cc1cc(Cl)cs1 (some centres unmarked) [UB-180763] | 0.01 to 0.1
CC[C@@H]1C(=O)N(C)c2cnc(Nc3ccc(C(=O)NCc4cn(CCNCCOCC(=O)Nc5cccc6c5CN(C5CCC(=O)NC5=O)C6=O)nn4)cc3OC)nc2N1Cc1ccc(C)s1 (some centres unmarked) [UB-180764] | < 0.01
CC[C@@H]1C(=O)N(C)c2cnc(Nc3ccc(C(=O)NCc4cn(CCNCCOCC(=O)Nc5cccc6c5CN(C5CCC(=O)NC5=O)C6=O)nn4)cc3OC)nc2N1Cc1ccc(C#N)s1 (some centres unmarked) [UB-180765] | 0.01 to 0.1
CC[C@@H]1C(=O)N(C)c2cnc(Nc3ccc(C(=O)NC4CCN(CCOCCNCC(=O)Nc5cccc6c5CN(C5CCC(=O)NC5=O)C6=O)CC4)cc3OC)nc2N1Cc1cc(Cl)cs1 (some centres unmarked) [UB-180767] | 0.01 to 0.1
O=C1CCC(N2Cc3c(NC(=O)CCOCCNCCN4CCC(NC(=O)c5ccc(Nc6ncc7c(n6)-c6ccc(Cl)cc6C(c6c(F)cccc6F)=NC7)cc5)CC4)cccc3C2=O)C(=O)N1 (centres unmarked) [UB-180768] | 0.1 to 1
O=C1CCC(N2Cc3c(NC(=O)CCOCCNCCN4CCC(NC(=O)[C@]5(Cc6cccc(Nc7nccs7)n6)CC[C@@H](Oc6cccc(Cl)c6F)CC5)CC4)cccc3C2=O)C(=O)N1 (some centres unmarked) [UB-180769] | 0.1 to 1
O=C1CCC(N2Cc3c(NC(=O)CCCCCNCCOCCOCCOCCNC(=O)c4ccc(Nc5ncc6c(n5)-c5ccc(Cl)cc5C(c5c(F)cccc5F)=NC6)cc4)cccc3C2=O)C(=O)N1 (centres unmarked) [UB-180770] | 0.1 to 1

Same assay, conditions: MV4;11 cells

EC50 [µM] | SMILES
0.1 to 1 | O=C1CCC(N2Cc3c(NC(=O)CCNCCOCCn4cc(CNC(=O)c5ccc(Nc6ncc7c(n6)-c6ccc(Cl)cc6C(c6c(F)cccc6F)=NC7)cc5)nn4)cccc3C2=O)C(=O)N1 (centres unmarked) [UB-180738]
> 1 | O=C1CCC(N2Cc3c(NC(=O)CCNCCOCCn4cc(CNC(=O)[C@]5(Cc6cccc(Nc7nccs7)n6)CC[C@@H](Oc6cccc(Cl)c6F)CC5)nn4)cccc3C2=O)C(=O)N1 (some centres unmarked) [UB-180739]
0.01 to 0.1 | CC[C@@H]1C(=O)N(C)c2cnc(Nc3ccc(C(=O)NC4CCN(CCOCCNCC(=O)Nc5cccc6c5CN(C5CCC(=O)NC5=O)C6=O)CC4)cc3OC)nc2N1Cc1ccc(C)s1 (some centres unmarked) [UB-180747]
> 1 | O=C1CCC(N2Cc3c(NC(=O)CCNCCOCCn4cc(CNC(=O)c5ccc(Nc6ncc7c(n6)-c6ccc(Cl)cc6C(c6c(F)cccc6F)=NC7)cc5)nn4)cccc3C2=O)C(=O)N1 (centres unmarked) [UB-180748]
0.1 to 1 | O=C1CCC(N2Cc3c(NC(=O)CCNCCOCCn4cc(CNC(=O)[C@]5(Cc6cccc(Nc7nccs7)n6)CC[C@@H](Oc6cccc(Cl)c6F)CC5)nn4)cccc3C2=O)C(=O)N1 (some centres unmarked) [UB-180749]
